Values joined by “and” are separate entries in the source; they are usually repeats but may differ in a detail not shown here. Equal entries are not always repeated.
Columns and labels:
[1] = tested on: subjects with T2DM and renal impairment; assay: Phase 2a: HbA1c blood test; type: in vivo, human; settings: ITT; for HbA1c LS Mean Change / HbA1c Change from Baseline, Mean / HbA1c Difference in LS Mean Change (vs Placebo): Day 1 to Day 32; for HbA1c LS Mean Change: ANCOVA
Description: (§1) Cotadutide was titrated from 50 μg up to 300 μg and administered once daily by subcutaneous (SC) injection over 32 days.
(§2) Cotadutide was administered at 50 μg once daily for 4 days, followed by 100 μg daily for 7 days, 200 μg daily for 7 days, and 300 μg daily for 14 days (n=20). Placebo was administered one daily for 32 days (n=20). Cotadutide and placebo were administered in the morning. Dosing commenced following predose baseline vital signs, blood tests (including HbA1c), an electrocardiogram (ECG), body weight measurement, and bioimpedance spectroscopy (BIS). Subjects then returned for daily dosing or remained overnight locally until Day 5, and thereafter, had visits at weekly intervals until a maintenance dose of 300 μg was established. Thus, Cotadutide or placebo was administered at the study site by study personal for the first four doses and on site on Days 5, 12, 19, and 32. At all other times, subjects preformed dosing at home.
Blood samples were collected to evaluate blood glucose (fasting) and HbA1c levels.

brown adipose tissue = assay: [^18F]FDG uptake by PET imaging (separate study); type: in vivo, mice
Description: Finally, glucose uptake was elevated in brown adipose tissue in Cotadutide treated mice, which was confirmed in a separate study of [^18F]FDG uptake by PET imaging.

[2] = tested on: subjects with T2DM and renal impairment; assay: Phase 2a: blood pressure and heart rate (ABPM and office-based); type: in vivo, human
Description: After instruction, subjects set up and applied an ambulatory blood pressure monitoring (ABPM) device. The subjects were advised to undergo normal daily activities while wearing the cuff and to avoid any strenuous forms of activity, bathing, or showering while wearing the cuff. The subjects were advised to remain still during the measurement with the arm relaxed at heart level. During ABPM, systolic BP, diastolic BP, heart rate pressure, heart rate, and mean arterial pressure readings were recorded over a period of 24 hours.
Based on post-hoc analysis, ABPM measurements were as follows: mean change from baseline to Day 32: −1.15 mmHg vs 2.21 mmHg (systolic, Cotadutide vs Placebo) and 2.54 mmHg vs 1.84 mmHg (diastolic, Cotadutide vs Placebo). Increases in supine blood pressure from baseline were also observed after 32 days of treatment: 1.44 mmHg vs 8.69 mmHg (systolic, Cotadutide vs placebo) and 0.57 mmHg vs 3.40 mmHg (diastolic, Cotadutide vs placebo); however, these changes were also not clinically significant and were numerically greater in the placebo group.
Based on office-based measurement, increases in postural blood pressure difference were observed after 32 days of treatment: 8.9 mmHg vs 0 1 mmHg (systolic, Cotadutide vs placebo) and 0.8 mmHg vs 1 8 mmHg (diastolic, Cotadutide vs placebo); however, these changes were not clinically significant.
By Day 32, the LS mean change from baseline in pulse rate (office-based measure) was an increase of 14.13 bpm for subjects in the Cotadutide dose group and 3.14 bpm for subjects in the placebo dose group (p <0.001). […] Mean heart rate changes from baseline to Day 32 were numerically greater while asleep (13.06 bpm vs −2.28 bpm) compared to awake (10.78 bpm vs −0.80 bpm) for subjects on Cotadutide vs placebo, respectively.

[3] = tested on: patients with T2DM and chronic kidney disease (CKD) stage G3; assay: Phase 2a: C-peptide levels; type: in vivo, human; settings: over 32 days; P<0.001
Description: Over 32 days, 21 patients received once-daily subcutaneous cotadutide (n=21) titrated up to 300 μg, and 20 patients received placebo (PBO). […] Serious adverse events (AEs) were balanced between treatment arms; treatment-related AEs were more frequent with cotadutide (71%) vs PBO (35%). The most common AEs were nausea (cotadutide, 33%; PBO, 20%) and vomiting (cotadutide, 24%; PBO, 5%). […] Thus, in patients with T2DM and chronic kidney disease, cotadutide improved overall glycemic control and glucose responses to an MMTT with acceptable tolerability. Improvements in albuminuria indicate that cotadutide can slow long-term progression of CKD.

[4] = tested on: subjects with T2DM and renal impairment; assay: Phase 2a: urine albumin:creatinine ratio (UACR); type: in vivo, human; settings: for UACR Relative Change from Baseline to End of Dosing (vs. Placebo): subjects with mean UACR > 3 mg/mmol at baseline (micro- or macroalbuminuria), 1-exponential of fold change
Description: as §1, §2
Mean urine albumin:creatinine ratio (UACR) was lower in the Cotadutide dose group compared to placebo from Day 19 until the end of dosing, and for 8 days into the follow-up period.

[5] = tested on: subjects with T2DM and renal impairment; assay: Phase 2a: adverse events; type: in vivo, human
Description: Only serious adverse events (SAEs) associated with protocol-related procedures were collected form time of signature of informed consent until the stat of the treatment period. All adverse events (AEs) were collected during the treatment period and follow-up period (Day 60±5). AEs and SAEs were graded by severity and relationship to Cotadutide or placebo, and SAEs were assessed for relationship to protocol procedures.

[6] = office-based measurement, after 32 days
[7] = subjects with mean UACR > 3 mg/mmol at baseline
[8] = subjects with mean UACR > 3 mg/mmol at baseline, ITT

## CCCCCCCCCCCCCCCC(=O)N[C@@H](CCC(=O)NCCCC[C@H](NC(=O)[C@H](CC(=O)O)NC(=O)[C@H](CO)NC(=O)[C@@H](NC(=O)[C@H](Cc1ccccc1)NC(=O)[C@@H](NC(=O)CNC(=O)[C@H](CCC(N)=O)NC(=O)[C@H](CO)NC(=O)[C@@H](N)Cc1c[nH]cn1)[C@@H](C)O)[C@@H](C)O)C(=O)N[C@@H](CO)C(=O)N[C@@H](CCC(=O)O)C(=O)N[C@@H](Cc1ccc(O)cc1)C(=O)N[C@@H](CC(C)C)C(=O)N[C@@H](CC(=O)O)C(=O)N[C@@H](CO)C(=O)N[C@@H](CCC(=O)O)C(=O)N[C@@H](CCCNC(=N)N)C(=O)N[C@@H](C)C(=O)N[C@@H](CCCNC(=N)N)C(=O)N[C@@H](CC(=O)O)C(=O)N[C@@H](Cc1ccccc1)C(=O)N[C@H](C(=O)N[C@@H](C)C(=O)N[C@@H](Cc1c[nH]c2ccccc12)C(=O)N[C@@H](CC(C)C)C(=O)N[C@@H](CCC(=O)O)C(=O)N[C@@H](C)C(=O)NCC(=O)NCC(=O)O)C(C)C)C(=O)O [Cotadutide]
[1]; Insulin Dose < 20 U/day
  HbA1c LS Mean Change: −0.66%
  HbA1c Change from Baseline, Mean: −0.829%
  HbA1c Difference in LS Mean Change (vs Placebo): −0.59%
  Hemoglobin A1C, Day 32, Mean: 6.943%
  Hemoglobin A1C, Day 32, Median: 6.900%
[1]; Insulin Dose ≥ 20 U/day
  HbA1c LS Mean Change: −0.57%
  HbA1c Difference in LS Mean Change (vs Placebo): −0.55%
  Hemoglobin A1C, Day 32, Mean: 7.392%
  Hemoglobin A1C, Day 32, Median: 7.300%
[1]; Total
  HbA1c LS Mean Change: −0.65% and −0.7%
  HbA1c Change from Baseline, Mean: −0.653%
  HbA1c Difference in LS Mean Change (vs Placebo): −0.66%
  Hemoglobin A1C, Day 32, Mean: 7.226%
  Hemoglobin A1C, Day 32, Median: 7.200%
[1]; Total, listed as MEDI0382
  HbA1c LS Mean Change: −0.65%
Brown adipose tissue
  [^18F]FDG uptake by PET imaging, brown adipose tissue: confirmed
[2]; ABPM
  Mean heart rate change from baseline to Day 32, asleep: 13.06 bpm
  Mean heart rate change from baseline to Day 32, awake: 10.78 bpm
[2]; Day 32
  LS mean change from baseline in pulse rate (office-based measure): 14.13 bpm
[2]; after 32 days of treatment
  changes in blood pressure: no clinically or statistically significant changes
  supine diastolic blood pressure, increase from baseline: 0.57 mmHg
  supine systolic blood pressure, increase from baseline: 1.44 mmHg
[2]; after 32 days of treatment, listed as cotadutide
  changes in blood pressure: no significant changes
[2]; by day 32, P<0.001
  Pulse rate increase: 11 beats per minute
[2]; end of the study (Day 60)
  differences in heart rate from baseline: no meaningful differences
[2]; [6]
  increase in postural blood pressure difference, diastolic: 0.8 mmHg
  increase in postural blood pressure difference, systolic: 8.9 mmHg
[2]; post-hoc analysis
  24-hour heart rate by ABPM, mean increase from baseline to Day 32: 11.85 bpm
  ABPM diastolic blood pressure, mean change from baseline to Day 32: 2.54 mmHg
  ABPM systolic blood pressure, mean change from baseline to Day 32: −1.15 mmHg
[3]
  C-peptide levels, LS mean change vs PBO: 0.88 µg/L
[4]; Total, ITT
  Urine Albumin/Creatinine, End of Dosing (Day 33), Mean: 10.06 mg/mmol
  Urine Albumin/Creatinine, End of Dosing (Day 33), Median: 2.00 mg/mmol
[4]; baseline to Day 33, ANCOVA, Total, ITT
  UACR LS Mean Change: -3.05 mg/mmol
[4]; baseline to Day 33, Total, ITT
  UACR Change from Baseline, Mean: -3.05 mg/mmol
  UACR Change from Baseline, Median: -0.60 mg/mmol
  UACR Difference in LS Mean Change (vs Placebo): -5.07 mg/mmol
[4]; baseline to end of dosing, subjects with mean UACR > 3 mg/mmol at baseline
  Fold Change in Log-Transformed UACR (vs. Placebo): −0.70
[4]; [7]
  UACR Geometric Mean (end of dosing relative to baseline): 0.511
  UACR Geometric Mean Ratio (vs. Placebo): 0.4945
[4]
  UACR Relative Change from Baseline to End of Dosing (vs. Placebo): 50.6%
[4]; listed as MEDI0382
  UACR Relative Change from Baseline to End of Dosing (vs. Placebo): 50.55%
[4]; [8]
  Log-transformed UACR, End of Dosing (Day 33), Mean: 1.767
  Log-transformed UACR, End of Dosing (Day 33), Median: 1.253
[5]; diabetic ketoacidosis and cholecystitis, deemed related
  deaths: one death
[5]; in vivo
  Serious adverse events (SAEs) vs placebo: balanced
  TEAE that led to withdrawal: two subjects
  incidence of overall TEAEs and product-related TEAEs vs placebo: higher
  most frequently reported TEAEs (preferred term): nausea, vomiting, diarrhea, and dyspepsia
  nausea, frequency: 33%
  treatment-related AEs, frequency: 71%
  vomiting, frequency: 24%
